In the NIST ThermoML archive (doi:10.1016/j.jct.2013.09.039):

Conditions: Liquid, Vibrating tube method

Cc1ccc(C)cc1 [1,4-dimethylbenzene]
mass density [kg/m3]
Conditions	100 kPa	5000 kPa	10000 kPa	20000 kPa	30000 kPa	40000 kPa
288.15 K	864.9	868.3	871.8	878.1	884	889.7
298.15 K	856.2	860.2	863.5	870.1	876.5	882.2
308.15 K	847.5	851.4	855.2	862.1	868.6	874.8
